Measurements from patent US8703776B2 (Cymabay Therapeutics, Inc., priority 2011, dated 2014).

Biological target: T1, human GPR131 (Homo sapiens, UniProt Q8TDU6)
T1 construct: expressed in transfected cells
T1 sequence (Q8TDU6 1-330): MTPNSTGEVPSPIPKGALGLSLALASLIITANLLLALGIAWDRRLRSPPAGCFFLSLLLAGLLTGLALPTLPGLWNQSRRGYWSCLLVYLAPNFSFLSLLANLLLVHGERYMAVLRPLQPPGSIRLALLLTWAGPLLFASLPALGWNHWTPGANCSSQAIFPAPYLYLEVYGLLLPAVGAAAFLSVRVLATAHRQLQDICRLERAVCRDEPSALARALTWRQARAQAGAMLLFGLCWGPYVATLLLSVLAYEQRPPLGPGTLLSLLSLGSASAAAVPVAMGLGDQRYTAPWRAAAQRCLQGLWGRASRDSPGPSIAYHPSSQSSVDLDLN
Assay: Stimulation of cAMP in stable cell line expressing human GPR131 (FRET cAMP kit)
Type: cell-based
Settings: 0.5 h; 1.1 μM compound, relative to maximal stimulatory activity of lithocholic acid at 3.3 μM; 30 minutes at 37° C.; read-out: Percent Activity @ 1.1 μM (of 3.3 uM LCA) (%)
Protocol: This assay was developed using a stable cell line expressing human GPR131.
To measure cAMP activity in response to GPR131 agonists, GPR131 cells suspended in DMEM/F12 medium with 1 mM IBMX were seeded in 384 well plates at 5000 cells per well. After incubating with test compounds at 37° C. for 30 minutes cAMP was measured using a fluorescene resonance energy transfer cAMP kit from Cis Bio (Bedford, Mass.) according to the manufacturer's instructions. Briefly, cells were lysed, and cAMP levels determined by competitive immunoassay using D2 labeled cAMP, and europium cryptate tagged anti cAMP antibody. Decreases in the FRET signal (fluorescence ratio (665 nm/620 […]) correspond to increases in intracellular cAMP levels.
Activities of test compounds in Table 1 below are expressed as % activity at 1.1 μM compound compared to the maximal stimulatory activity of lithocholic acid (LCA) (determined at 3.3 μM LCA)

Compound | activation at 1.1 µM
CN(Cc1ccncc1)C(=O)c1cnc(SCc2c(F)cccc2Cl)n1-c1cccc(F)c1 [Compound 564, 2-((2-Chloro-6-fluorobenzyl)thio)-1-(3-fluorophenyl)-N-methyl-N-(pyridin-4-ylmethyl)-1H-imidazole-5-carboxamide] | 99%
Fc1ccc(-n2c(COCc3ccncc3)cnc2SCc2c(F)ccc(F)c2F)cc1 [Compound 530, 4-(((1-(4-Fluorophenyl)-2-((2,3,6-trifluorobenzyl)thio)-1H-imidazol-5-yl)methoxy)methyl)pyridine] | 100%
CN(Cc1ccncc1)C(=O)c1cnc(SCc2c(F)ccc(F)c2F)n1-c1ccc(F)cc1 [Compound 518, 1-(4-Fluorophenyl)-N-methyl-N-(pyridin-4-ylmethyl)-2-((2,3,6-trifluorobenzyl)thio)-1H-imidazole-5-carboxamide] | 100%
Cc1nn(C)cc1CN(C)C(=O)c1cnc(SCc2c(F)ccc(F)c2F)n1-c1ccc(F)cc1 [Compound 505, N-((1,3-Dimethyl-1H-pyrazol-4-yl)methyl)-1-(4-fluorophenyl)-N-methyl-2-((2,3,6-trifluorobenzyl)thio)-1H-imidazole-5-carboxamide] | 99%
Cc1cc(CN(C)C(=O)c2cnc(S(=O)(=O)CCc3ccc(F)c(Cl)c3)n2-c2ccc(F)cc2)ccn1 [Compound 586, 2-((3-Chloro-4-fluorophenethyl)sulfonyl)-1-(4-fluorophenyl)-N-methyl-N-((2-methylpyridin-4-yl)methyl)-1H-imidazole-5-carboxamide] | 86%
Cc1nn(C)cc1CN(C)C(=O)c1cnc(SCc2ccccc2)n1-c1ccc(F)cc1 [Compound 593, 2-(Benzylthio)-N-((1,3-dimethyl-1H-pyrazol-4-yl)methyl)-1-(4-fluorophenyl)-N-methyl-1H-imidazole-5-carboxamide] | 99%
Cc1nn(C)cc1CN(C)Cc1cnc(SCc2c(F)ccc(F)c2F)n1-c1ccc(F)cc1 [Compound 506, 1-(1,3-Dimethyl-1H-pyrazol-4-yl)-N-((1-(4-fluorophenyl)-2-((2,3,6-trifluorobenzyl)thio)-1H-imidazol-5-yl)methyl)-N-methylmethanamine] | 100%
CN(Cc1ccncc1)C(=O)c1cnc(SCc2c(F)cccc2Cl)n1-c1ccc(F)cc1 [Compound 533, 2-((2-Chloro-6-fluorobenzyl)thio)-1-(4-fluorophenyl)-N-methyl-N-(pyridin-4-ylmethyl)-1H-imidazole-5-carboxamide] | 100%
Cc1cc(CN(C)C(=O)c2cnc(I)n2-c2ccc(F)cc2)ccn1 [Compound 589, 1-(4-Fluorophenyl)-2-iodo-N-methyl-N-((2-methylpyridin-4-yl)methyl)-1H-imidazole-5-carboxamide] | 87%
Cc1ccc(Cl)c(CSc2ncc(C(=O)N(C)Cc3ccncc3)n2-c2ccc(F)cc2)c1F [Compound 622, 2-((6-Chloro-2-fluoro-3-methylbenzyl)thio)-1-(4-fluorophenyl)-N-methyl-N-(pyridin-4-ylmethyl)-1H-imidazole-5-carboxamide] | 100%
Cc1nn(C)cc1CNC(=O)c1cnc(SCc2c(F)ccc(F)c2F)n1-c1ccc(F)cc1 [Compound 508, N-((1,3-Dimethyl-1H-pyrazol-4-yl)methyl)-1-(4-fluorophenyl)-2-((2,3,6-trifluorobenzyl)thio)-1H-imidazole-5-carboxamide] | 82%
COc1ccc(Cl)c(CSc2ncc(C(=O)N3CCCC3c3ccncc3)n2-c2ccc(F)cc2)c1F (stereo not shown) [Compound 591, (2-((6-Chloro-2-fluoro-3-methoxybenzyl)thio)-1-(4-fluorophenyl)-1H-imidazol-5-yl)(2-(pyridin-4-yl)pyrrolidin-1-yl)methanone] | 94%
Cc1nc(CSc2ncc(C(=O)N(C)Cc3cn(C)nc3C)n2-c2ccc(F)cc2)no1 [Compound 552, N-((1,3-Dimethyl-1H-pyrazol-4-yl)methyl)-1-(4-fluorophenyl)-N-methyl-2-(((5-methyl-1,2,4-oxadiazol-3-yl)methyl)thio)-1H-imidazole-5-carboxamide] | 99%
CCN(Cc1ccncc1)C(=O)c1cnc(SCc2c(Cl)ccc(C)c2F)n1-c1ccc(F)cc1 [Compound 627, 2-((6-Chloro-2-fluoro-3-methylbenzyl)thio)-N-ethyl-1-(4-fluorophenyl)-N-(pyridin-4-ylmethyl)-1H-imidazole-5-carboxamide] | 100%
Cc1nn(C)cc1CN(C)C(=O)c1cnc(CCc2c(F)ccc(F)c2F)n1-c1ccc(F)cc1 [Compound 523, N-((1,3-Dimethyl-1H-pyrazol-4-yl)methyl)-1-(4-fluorophenyl)-N-methyl-2-(2,3,6-trifluorophenethyl)-1H-imidazole-5-carboxamide] | 96%
COc1ccc(Cl)c(CSc2nnc(C(=O)N(C)Cc3ccncc3)n2-c2ccc(F)cc2)c1F [Compound 594, 5-((6-Chloro-2-fluoro-3-methoxybenzyl)thio)-4-(4-fluorophenyl)-N-methyl-N-(pyridin-4-ylmethyl)-4H-1,2,4-triazole-3-carboxamide] | 98%
Cc1nn(C)cc1CN(C)C(=O)c1cnc(SCc2c(F)cccc2Cl)n1-c1ccccc1 [Compound 554, 2-((2-Chloro-6-fluorobenzyl)thio)-N-((1,3-dimethyl-1H-pyrazol-4-yl)methyl)-N-methyl-1-phenyl-1H-imidazole-5-carboxamide] | 99%
Cc1nn(C)cc1CN(C)C(=O)c1cnc(SCc2c(F)cc(C(=O)OC(C)(C)C)cc2F)n1-c1ccc(F)cc1 [Compound 542, tert-butyl 4-(((5-(((1,3-Dimethyl-1H-pyrazol-4-yl)methyl)(methyl)carbamoyl)-1-(4-fluorophenyl)-1H-imidazol-2-yl)thio)methyl)-3,5-difluorobenzoate] | 100%
CN(Cc1ccncc1)C(=O)c1cnc(SCc2c(F)cccc2Cl)n1C1CCCCC1 [Compound 565, 2-((2-Chloro-6-fluorobenzyl)thio)-1-cyclohexyl-N-methyl-N-(pyridin-4-ylmethyl)-1H-imidazole-5-carboxamide] | 99%
Cc1cnccc1CN(C)C(=O)c1cnc(SCc2c(F)ccc(F)c2F)n1-c1ccc(F)cc1 [Compound 502, 1-(4-Fluorophenyl)-N-methyl-N-((3-methylpyridin-4-yl)methyl)-2-((2,3,6-trifluorobenzyl)thio)-1H-imidazole-5-carboxamide] | 100%
CN(Cc1ccncc1)C(=O)c1cnc(SCc2ccccc2F)n1-c1ccc(F)cc1 [Compound 613, 2-((2-Fluorobenzyl)thio)-1-(4-fluorophenyl)-N-methyl-N-(pyridin-4-ylmethyl)-1H-imidazole-5-carboxamide] | 100%

System: not listed separately
Assay: Oral glucose tolerance test in C57BL/6N mice
Type: in vivo
Settings: 100 mg/kg oral, 3 g/kg glucose, percent reduction in glucose excursion (AUC 0-120 min) vs. control animals
Protocol: Male mice (8-10 week old C57BL/6N, Harlan Laboratories, Inc.) were maintained on 18% Protein Rodent diet (Teklad Global Diets, Harlan Laboratories, Inc). Overnight fasted mice were randomized into groups (n=8-10) to receive the test compounds at a dose of 100 mg/kg or the vehicle (1% CMC, 2% TWEEN 80). Compounds were delivered orally via gavage. Blood glucose levels were measured by glucometer before administration of compounds and at 30 minutes post compound. The mice were then dosed orally with 3 g/kg glucose. Blood glucose measurements were taken 20, 40, 60, 90 and 120 minutes after glucose administration. Glucose levels were plotted against time and the incremental area under the curve (AUC) of the glucose excursion was determined from T=0 to T=120 min.
(§1) Oral glucose tolerance is expressed as a percent reduction in glucose excursion of animals receiving test compound vs. control animals. Incretin activity (i.e. incretin secretion) is expressed as an x-fold increase in GLP-1 production in animals receiving test compound vs. control animals.

Compound | Glucose Reduction (%)
Cc1nn(C)cc1CN(C)C(=O)c1cnc(SCc2c(F)ccc(F)c2F)n1-c1ccc(F)cc1 [Compound 505, N-((1,3-Dimethyl-1H-pyrazol-4-yl)methyl)-1-(4-fluorophenyl)-N-methyl-2-((2,3,6-trifluorobenzyl)thio)-1H-imidazole-5-carboxamide] | 27.4%
Cc1cnccc1CN(C)C(=O)c1cnc(SCc2c(F)ccc(F)c2F)n1-c1ccc(F)cc1 [Compound 502, 1-(4-Fluorophenyl)-N-methyl-N-((3-methylpyridin-4-yl)methyl)-2-((2,3,6-trifluorobenzyl)thio)-1H-imidazole-5-carboxamide] | 27.7%

System: Glucagon-like peptide-1 (GLP-1)
Assay: Total GLP-1 secretion at end of oral glucose tolerance test
Type: in vivo
Settings: C57/6N mice, 100 mg/kg oral; total GLP-1 at end of OGTT vs. control animals
Protocol: The effect of test compounds on the secretion of Glucagon-like peptide-1 (GLP-1) in C57/6N mice was determined at the end of the oral glucose tolerance test. Animals were anesthetized with pentobarbital and blood collected by heart puncture in potassium EDTA-coated microtainer tubes containing 10 μl/ml DPP-IV inhibitor and 500 KIU/ml Aprotinin. Total GLP-1 was measured using Mouse/Rat Total Glucagon-like peptide-1 assay kit (Meso Scale Discovery) and MSD SECTOR2400 Imager according to the manufacturer's instructions.
as §1

Compound | Increase in GLP-1 (Fold)
Cc1nn(C)cc1CN(C)C(=O)c1cnc(SCc2c(F)ccc(F)c2F)n1-c1ccc(F)cc1 [Compound 505, N-((1,3-Dimethyl-1H-pyrazol-4-yl)methyl)-1-(4-fluorophenyl)-N-methyl-2-((2,3,6-trifluorobenzyl)thio)-1H-imidazole-5-carboxamide] | 1.9 Fold
Cc1cnccc1CN(C)C(=O)c1cnc(SCc2c(F)ccc(F)c2F)n1-c1ccc(F)cc1 [Compound 502, 1-(4-Fluorophenyl)-N-methyl-N-((3-methylpyridin-4-yl)methyl)-2-((2,3,6-trifluorobenzyl)thio)-1H-imidazole-5-carboxamide] | 2.2 Fold
